One data set relates to human Notch 1. Nature of the data set: Notch-CBF1 Transactivation Assay (Notch 1). Format: cell-based. The settings on record: read-out: Notch 1 IC50; Notch-CBF1 transactivation luciferase assay in transfected HeLa cells; some values are an average of N experiments. From the text:
(§1) Notch-CBF1 Transactivation Assay
(§2) The Notch-CBF1 (C-promoter binding factor I) cell based transactivation assay is based on the ability of the released Notch intracellular domain fragments (NICDs) to function as transcription factors in conjunction with CBF1 and other nuclear factors. Luciferase assays were used to measure the antagonism of Notch-CBF1 transcriptional activity. HeLa cervical cancer cells are transiently co-transfected with pCDNA3.1/Hygro plasmids containing truncated Notch 1, Notch 2, Notch 3, or Notch 4 receptors and a PGL3 luciferase reporter vector containing 4 copies of CBF1 binding site. The cells were then tested for Notch-CBF1 activity in the absence or presence of test compounds. HeLa cells, maintained in DMEM (high glucose with HEPES), 1× glutamine/penicillin/streptomycin and 10% Fetal Bovine serum, were transiently transfected in a T175 Flask (4.5×10^6 cells/flask) using the Monster Transfection Kit (Minis #MIR2906) according to manufacturers specifications. Table 13 denotes respective DNA quantity for the transfections.
(§3) Assay media (5 μL) containing test compounds in final concentrations ranging from 5 μM to 8.4×10^−5 μM (3 fold serial dilutions) were added to the cells and the cell plates were then incubated for 18 hours at 37° C. and 5% CO2. Control wells contained DMSO vehicle (total counts) or 0.5 μM of an in-house small molecule inhibitor (background counts). Duplicates were used for each sample. Luciferase activity was measured after a 20-minute incubation with 50 μl STEADY-GLO® luciferase reagents according to manufacturer's specifications (Promega, Cat. #E2550) and analyzed by Envision plate reader (PerkinElmer, Boston, Mass.).
(§4) The antagonist effect of compounds was expressed as 100×[1−(average sample−average background)/(average total−average background)] where sample is the luciferase activity in the presence of test compound, background is equal to the luciferase activity in the presence of the small molecule inhibitor control and the total is signal induced in DMSO wells.

The nature of data set [1]: human metabolic stability half-life assay. The following applies: microsomes, human liver microsomes. As for the experimental part: Metabolic Stability Half-Life Panel
Incubation with Liver Microsomes

The test system of the next data set is human Notch 3. Nature of the data set: Notch-CBF1 Transactivation Assay (Notch 3). Format: cell-based. The settings on record: read-out: Notch 3 IC50; Notch-CBF1 transactivation luciferase assay in transfected HeLa cells; some values are an average of N experiments.
Text: as §1, §2, §3, §4

[2] abbreviates: pH 7.4, CYP-mediated metabolic stability half life, NADPH-dependent.
Setting [3] is: pH 7.4, HLM (t1/2, min), CYP-mediated (NADPH-dependent), 0.5 μM compound, 45 min time course, some values are an average of N experiments.

`Cc1cc(F)c2c(c1)C(c1ccccc1)=N[C@H](NC(=O)[C@H](CCC(F)(F)F)[C@H](CC1CC1)C(N)=O)C(=O)N2` [Example 17, (2R,3S)-3-(Cyclopropylmethyl)-N-((3S)-9-fluoro-7-methyl-2-oxo-5-phenyl-2,3-dihydro-1H-1,4-benzodiazepin-3-yl)-2-(3,3,3-trifluoropropyl)succinamide]: the IC50 in the data set with human Notch 1 worked out at 9.7 nM; in the data set with human Notch 3, 26.4 nM. The half-life at 0.5 µM in data set [1] (setting [2]) is not below 30 min; in data set [1] (setting [3]) it was 60 min.

Take `Cc1ccc2c(c1F)NC(=O)[C@@H](NC(=O)[C@H](CCC(F)(F)F)[C@H](CC1CC1)C(N)=O)N=C2c1ccccc1` [Example 18, (2R,3S)-3-(Cyclopropylmethyl)-N-((3S)-9-fluoro-8-methyl-2-oxo-5-phenyl-2,3-dihydro-1H-1,4-benzodiazepin-3-yl)-2-(3,3,3-trifluoropropyl)succinamide]: the figures for the IC50 in the data set with human Notch 1 and in the data set on human Notch 3 were 6.5 nM and 6.9 nM, respectively. Moreover, the half-life at 0.5 µM in data set [1] (setting [2]) was not below 30 min; in data set [1] (setting [3]), more than 120 min.

`Cc1cccc(C2=N[C@H](NC(=O)[C@H](CCC(F)(F)F)[C@H](CC3CC3)C(N)=O)C(=O)Nc3c(F)cccc32)c1` [Example 19, (2R,3S)-3-(Cyclopropylmethyl)-N-((3S)-9-fluoro-5-(3-methylphenyl)-2-oxo-2,3-dihydro-1H-1,4-benzodiazepin-3-yl)-2-(3,3,3-trifluoropropyl)succinamide]: the half-inhibitory concentration (IC50) came to 2.7 nM in the data set with human Notch 1 and 7.2 nM in the data set on human Notch 3. The results for the half-life at 0.5 µM in data set [1] (setting [2]) and in data set [1] (setting [3]) were not below 30 min and 56 min, respectively.

Regarding `CN1C(=O)[C@@H](NC(=O)[C@H](CCC(F)(F)F)[C@H](CC2CC2)C(N)=O)N=C(c2ccccc2)c2cccc(F)c21` [Example 20, (2R,3S)-3-(Cyclopropylmethyl)-N-((3S)-9-fluoro-1-methyl-2-oxo-5-phenyl-2,3-dihydro-1H-1,4-benzodiazepin-3-yl)-2-(3,3,3-trifluoropropyl)succinamide], the half-inhibitory concentration (IC50) with human Notch 1 was 3.4 nM; with human Notch 3, 9.1 nM. In addition, the half-life at 0.5 µM in data set [1] (setting [2]) was not below 30 min; in data set [1] (setting [3]), 106 min.

Regarding `COc1cccc2c1NC(=O)[C@@H](NC(=O)[C@H](CCC(F)(F)F)[C@H](CC1CC1)C(N)=O)N=C2c1ccc(Cl)cc1` [Example 21, (2R,3S)—N-((3S)-5-(4-Chlorophenyl)-9-methoxy-2-oxo-2,3-dihydro-1H-1,4-benzodiazepin-3-yl)-3-(cyclopropylmethyl)-2-(3,3,3-trifluoropropyl)succinamide], the concentration for half-maximal inhibition (IC50) with human Notch 1 and with human Notch 3 was 2.4 nM each time. For the same molecule, the half-life at 0.5 µM in data set [1] (setting [2]) is not below 30 min; in data set [1] (setting [3]), 62 min.

For `COc1cccc(C2=N[C@H](NC(=O)[C@H](CCC(F)(F)F)[C@H](CC3CC3)C(N)=O)C(=O)Nc3c(F)cccc32)c1` [Example 22, (2R,3S)-3-(Cyclopropylmethyl)-N-((3S)-9-fluoro-5-(3-methoxyphenyl)-2-oxo-2,3-dihydro-1H-1,4-benzodiazepin-3-yl)-2-(3,3,3-trifluoropropyl)succinamide], the results for the concentration for half-maximal inhibition (IC50) with human Notch 1 and in the data set on human Notch 3 were 12.9 nM and 12.5 nM, respectively. Further, the half-life at 0.5 µM in data set [1] (setting [2]) is not below 30 min; in data set [1] (setting [3]) it was 32 min.

On to `NC(=O)[C@@H](CC1CC1)[C@@H](CCC(F)(F)F)C(=O)N[C@H]1N=C(c2cccc(F)c2)c2cccc(F)c2NC1=O` [Example 23, (2R,3S)-3-(Cyclopropylmethyl)-N-((3S)-9-fluoro-5-(3-fluorophenyl)-2-oxo-2,3-dihydro-1H-1,4-benzodiazepin-3-yl)-2-(3,3,3-trifluoropropyl)succinamide], for which the figures for the concentration for half-maximal inhibition (IC50) in the data set on human Notch 1 and in the data set with human Notch 3 were 4.8 nM and 8 nM, respectively. Further, the half-life at 0.5 µM was not below 30 min in data set [1] (setting [2]) and 69 min in data set [1] (setting [3]).

For `NC(=O)[C@@H](CC1CC1)[C@@H](CCC(F)(F)F)C(=O)N[C@H]1N=C(c2cccc(Cl)c2)c2cccc(F)c2NC1=O` [Example 24, (2R,3S)—N-((3S)-5-(3-Chlorophenyl)-9-fluoro-2-oxo-2,3-dihydro-1H-1,4-benzodiazepin-3-yl)-3-(cyclopropylmethyl)-2-(3,3,3-trifluoropropyl)succinamide], the half-maximal inhibitory concentration (IC50) in the data set on human Notch 1 turned out to be 3.7 nM; in the data set with human Notch 3 it was 2.7 nM. For the same molecule, the half-life at 0.5 µM is not below 30 min in data set [1] (setting [2]) and 76 min in data set [1] (setting [3]).

As for `CCC[C@H](C(N)=O)[C@@H](CCC(F)(F)F)C(=O)N[C@H]1N=C(c2ccc(Cl)cc2)c2cccc(OC)c2NC1=O` [Example 25, (2R,3S)—N-((3S)-5-(4-Chlorophenyl)-9-methoxy-2-oxo-2,3-dihydro-1H-1,4-benzodiazepin-3-yl)-3-propyl-2-(3,3,3-trifluoropropyl)succinamide], the IC50 with human Notch 1 was 6.8 nM; in the data set with human Notch 3 it was 5.6 nM. In addition, the half-life at 0.5 µM in data set [1] (setting [2]) is not below 30 min; in data set [1] (setting [3]), 31 min.

In the case of `NC(=O)[C@@H](CC1CC1)[C@@H](CCC(F)(F)F)C(=O)N[C@H]1N=C(c2cccc(Cl)c2)c2cccc(Cl)c2NC1=O` [Example 26, (2R,3S)—N-((3S)-9-Chloro-5-(3-chlorophenyl)-2-oxo-2,3-dihydro-1H-benzo[e][1,4]diazepin-3-yl)-3-(cyclopropylmethyl)-2-(3,3,3-trifluoropropyl)succinamide], the IC50 was found to be 1.9 nM in the data set with human Notch 1 and 2.1 nM with human Notch 3. In addition, the half-life at 0.5 µM in data set [1] (setting [2]) is not below 30 min; in data set [1] (setting [3]) it was 96 min.

For `NC(=O)[C@@H](CC1CC1)[C@@H](CCC(F)(F)F)C(=O)N[C@H]1N=C(c2ccc(Cl)cc2)c2cccc(Cl)c2NC1=O` [Example 27, (2R,3S)—N-((3S)-9-Chloro-5-(4-chlorophenyl)-2-oxo-2,3-dihydro-1H-1,4-benzodiazepin-3-yl)-3-(cyclopropylmethyl)-2-(3,3,3-trifluoropropyl)succinamide], the half-inhibitory concentration (IC50) in the data set with human Notch 1 stood at 4.6 nM; in the data set on human Notch 3 it was 1.6 nM. Besides, the figures for the half-life at 0.5 µM in data set [1] (setting [2]) and in data set [1] (setting [3]) were not below 30 min and 81 min, respectively.

As for `CCC[C@H](C(N)=O)[C@@H](CCC(F)(F)F)C(=O)N[C@H]1N=C(c2ccc(Cl)cc2)c2cccc(Cl)c2NC1=O` [Example 28, (2R,3S)—N-((3S)-9-Chloro-5-(4-chlorophenyl)-2-oxo-2,3-dihydro-1H-1,4-benzodiazepin-3-yl)-3-propyl-2-(3,3,3-trifluoropropyl)succinamide], the IC50 with human Notch 1 and in the data set on human Notch 3 was 1.7 nM each time. For the same molecule, the results for the half-life at 0.5 µM in data set [1] (setting [2]) and in data set [1] (setting [3]) were not below 30 min and 39 min, respectively.

For `COc1ccc2c(c1F)NC(=O)[C@@H](NC(=O)[C@H](CCC(F)(F)F)[C@H](CC1CC1)C(N)=O)N=C2c1ccccc1` [Example 29, (2R,3S)-3-(Cyclopropylmethyl)-N-((3S)-9-fluoro-8-methoxy-2-oxo-5-phenyl-2,3-dihydro-1H-1,4-benzodiazepin-3-yl)-2-(3,3,3-trifluoropropyl)succinamide], the figures for the IC50 in the data set with human Notch 1 and in the data set on human Notch 3 were 3.1 nM and 7.1 nM, respectively. The half-life at 0.5 µM is not below 30 min in data set [1] (setting [2]) and 99 min in data set [1] (setting [3]).

In the case of `Cc1cccc(C2=N[C@H](NC(=O)[C@H](CCC(F)(F)F)[C@H](CC3CC3)C(N)=O)C(=O)Nc3c(Cl)cccc32)c1` [Example 30, (2R,3S)—N-((3S)-9-Chloro-5-(3-methylphenyl)-2-oxo-2,3-dihydro-1H-1,4-benzodiazepin-3-yl)-3-(cyclopropylmethyl)-2-(3,3,3-trifluoropropyl)succinamide], the IC50 in the data set with human Notch 1 stood at 2.5 nM; in the data set with human Notch 3, 5.2 nM. Moreover, the half-life at 0.5 µM was not below 30 min in data set [1] (setting [2]) and 74 min in data set [1] (setting [3]).

For `COc1cccc2c1NC(=O)[C@@H](NC(=O)[C@H](CCC(F)(F)F)[C@H](CC1CC1)C(N)=O)N=C2c1cccc(C)c1` [Example 31, (2R,3S)-3-(Cyclopropylmethyl)-N-((3S)-9-methoxy-5-(3-methylphenyl)-2-oxo-2,3-dihydro-1H-1,4-benzodiazepin-3-yl)-2-(3,3,3-trifluoropropyl)succinamide], the concentration for half-maximal inhibition (IC50) in the data set with human Notch 1 was determined as 5.6 nM; with human Notch 3 it was 7.9 nM. Further, the results for the half-life at 0.5 µM in data set [1] (setting [2]) and in data set [1] (setting [3]) were not below 30 min and 52 min, respectively.

Regarding `CCC[C@H](C(N)=O)[C@@H](CCC(F)(F)F)C(=O)N[C@H]1N=C(c2ccccc2)c2cccc(C#N)c2NC1=O` [Example 32, (2R,3S)—N-((3S)-9-Cyano-2-oxo-5-phenyl-2,3-dihydro-1H-1,4-benzodiazepin-3-yl)-3-propyl-2-(3,3,3-trifluoropropyl)succinamide], the results for the half-inhibitory concentration (IC50) in the data set on human Notch 1 and in the data set on human Notch 3 were 8.3 nM and 19.7 nM, respectively. Moreover, the results for the half-life at 0.5 µM in data set [1] (setting [2]) and in data set [1] (setting [3]) were not below 30 min and 55 min, respectively.

Source of the values: US9242941B2, “Alkyl, fluoroalkyl-1,4-benzodiazepinone compounds” (BRISTOL-MYERS SQUIBB COMPANY, priority 2012, dated 2016).
